Results reported in EP2535049A1 (Proyecto de Biomedicina Cima, S.L., priority 2011, dated 2012).
Several values for one entry are separate records, joined by “and”; a condition that tells them apart may be missing. Equal values may be shown once. Entries after “also recorded” stand apart in the source; their conditions may differ. Marks after values point to notes of the source that are not given here.

Key:
[1] = Serum and brain levels of tadalafil after oral administration (HPLC-MS); type: in vivo, Mouse; details: for logBB (brain): average of logBB data from Ctx, Str and Hip, n=6, spread = Standard Deviation
Method: BB is the ratio of brain versus serum concentration. […] In addition, considering values in the three brain regions, the compound distribution looks quite uniform. Table 2. Blood-brain barrier permeability, as logBB, for Tadalafil
For analysis samples were prepared as follows: • 100 µl of serum were treated with 300 µl of 1% formic acid in acetonitrile. Mixture was vortexed for 5 minutes. The supernatant after centrifugation was filtered using a HybridSPE™ (Supelco, Bellefonte, USA) cartridge and the eluate was dried under an air stream. The powder was reconstituted in 100 µl of 50:50 (v/v) ammonium formate (pH=3):acetonitrile. After centrifugation the supernatant was used for analysis. • 100 mg of brain sample were treated with 600 µl of 1% formic acid in acetonitrile. The mixture was sonicated for 10 seconds and centrifuged for 5 minutes. The supernatant after centrifugation was filtered using a HybridSPE™ (Supelco, Bellefonte, USA) cartridge and the eluate was dried under an air stream. The powder was reconstituted in 100 µl of 50:50 (v/v) ammonium formate (pH=3):acetonitrile. After centrifugation the supernatant was used for analysis.

gerbils = details: Ko et al. (2009); cited from earlier work
[2] = quoted from WO2010/074783, page 109; cited from earlier work
pTau = assay: Immunohistochemistry of pTau (PHF-1, AT8) in J20 mice; type: in vivo; details: J20 mice treated for 10 weeks
Method: Results were compared with those obtained from age-matched negative littermates (controls). To test the effect of the PDE5 inhibitors in cognition capacity related to aging, a second treatment was carried out using 10-12 month-old non-transgenic (wild type) mice on an inbred C57/B6xSJL genetic background.
Twenty four hours after the fear conditioning test, animals (n=5, per group) were sacrificed and the brains removed for biochemical studies. The cortex and hippocampus were dissected, homogenized, and processed as described below for subsequent western blot analysis. Under xylazine/ketamine anesthesia, animals (n=4 per group) were perfused transcardially with saline and 4% paraformaldehyde in phosphate buffer (PB). After perfusion, brains were removed, post-fixed in the same fixative solution for 1 h at room temperature and cryoprotected in 30% sucrose solution in PB overnight at 4 °C. […]
For p-tau staining, slides were incubated in blocking solution (3% milk in TBS) and incubated overnight with primary antibody AT8 (1:50 v/v, Pierce, Woburn, MA, USA) or PHF1 (1:100 v/v, Dr. Peter Davies, Albert Einstein College, Bronx, NY, USA) at 4 °C. […] Fluorescence signals were detected with confocal microscope LSM 510 Meta (Carl Zeiss, Germany); objective Plan-neofluar 40x/1.3 oil DIC. Sections were evaluated in Z-series (0.4 microm steps) using LSM 510 Meta software.

[3] = BB = ratio of brain versus serum concentration, n=6 treated mice, (Standard Deviation)
[4] = concentration of tadalafil 90 minutes after oral administration of Cialis (15 mg/Kg), individual mice

SMILES: CN1CC(=O)N2[C@H](c3ccc4c(c3)OCO4)c3[nH]c4ccccc4c3C[C@@H]2C1=O [tadalafil, (6R-trans)-6-(1,3-benzodioxol-5-yl)-2,3,6,7,12,12a-hexahydro-2-methyl-pyrazino [1',2':1,6] pyrido [3,4-b]indole-1,4-dione]
- logBB (Ctx) [1, 3]: -0.89 (0.16)^b
- logBB (Hip) [1, 3]: -0.81 (0.17)^b
- logBB (Str) [1, 3]: -0.98 (0.13)^b
- Hip ([1]; Hippocampus, 90 minutes after oral administration of Cialis (15 mg/Kg), individual mice): 0.45 µM and 0.91 µM and 1.54 µM and 2.19 µM and 1.48 µM and 1.35 µM
- Ctx ([1]; Prefrontal Cortex, 90 minutes after oral administration of Cialis (15 mg/Kg), individual mice): 0.61 µM and 1.25 µM and 1.22 µM and 1.35 µM and 0.73 µM and 0.91 µM
- Str ([1]; Striatum, 90 minutes after oral administration of Cialis (15 mg/Kg), individual mice): 0.39 µM and 0.82 µM and 1.09 µM (2×) and 0.72 µM and 0.93 µM
- logBB (brain) [1]: -0.89+/-0.09
- logBB (brain) ([1]; listed as Tadalafil): -0.89 (0.09)^b
- Serum (µM) [1, 4]: 4,95 µM
- concentration at 90 min [1, 4]: 9.65 µM and 7.27 µM and 10.23 µM and 8.10 µM
- Kp at 90 min ([1]; mouse, oral, 15 mg/Kg, from logBB of the three brain areas): ~0.12
- concentration at 90 min ([1]; mouse, serum, oral, 15 mg/Kg, concentration of tadalafil 90 minutes after oral administration of Cialis (15 mg/Kg), individual mice): 6.53 µM
- short-term memory (gerbils): improves short-term memory
- ability to cross the BBB [2]: unable to cross the BBB
- pTau levels, PHF-1 anti-p-Tau Ser-396/404 antibody labeling (pTau; hippocampal and cortical slices): decrease in pTau levels; also recorded: much more marked than in animals treated with sildenafil
- pTau pathology, anti-pTau antibody recognizing Ser202 and Thr205 (AT8) labeling (pTau; hippocampus slices): lesser pTau pathology in animals treated with tadalafil than with sildenafil
